From patent US10329249B1, “Sulindac derivatives” (KING SAUD UNIVERSITY, priority 2018, dated 2019) come the findings set out here.

The test system of data set [1] is yeast-induced hyperthermia. The data set can be described thus: Anti-pyretic study, brewer's yeast-induced hyperthermia. The format is in vivo, mice. Conditions: mean ±SEM; for Rectal temperature 30 min: 30 min after drug; for Rectal temperature 30 min / Rectal temperature 60 min / Rectal temperature 120 min: Compound 8 150 mg/kg; for Rectal temperature 30 min / Rectal temperature 60 min / Rectal temperature 120 min / Rectal temperature, Control: Sulindac 100 mg/kg; for Rectal temperature 60 min: 60 min after drug; for Rectal temperature 120 min: 120 min after drug; for Rectal temperature, Control: after yeast injection, pre-drug, groups Compound 8 150 mg/kg; for Rectal temperature, Normal: before yeast, groups later given Compound 8 150 mg/kg or Sulindac 100 mg/kg. As for the experimental part: (§1) All animal experiments used healthy male albino rats (200 g-220 g) and mice. The animals were kept in standard plastic animal cages in groups of six animals each with a 12 hour light and dark cycle. The animals were acclimatized to laboratory conditions for a week prior to the experiments.
In an anti-pyretic study, hyperthermia was induced in mice by subcutaneous injection of 20 mL/kg of a 20% aqueous suspension of brewer's yeast in the back below of nape of the neck. The animals were fasted for 24 hours. Water was made available. Control rectal temperature was recorded 24 hours after the yeast injection to determine the pyretic response to yeast. Rectal temperature recordings were then taken 1 hour prior to drug administration in the fevered animals to serve as a pre drug control. […]

The test system of the next data set is ethanol-induced ulcer. The data set can be described thus: Ulcer study using 80% ethanol (gastric mucosal damage score). The format is in vivo, rats. To be noted: sulindac 100 mg/kg; for Ulcer Index: mean ±SEM; for % Inhibition (ulcer index): Cmpd 8 150 mg/kg, versus 80% EtOH alone. As for the experimental part:
as §1
In an ulcer study of sulindac derivatives using 80% ethanol, the ethanol-induced ulcer model was used to study gastro-protective activity of sulindac derivative Compound 8. Rats were grouped into five groups (n=6). Group I received 80% ethanol only and served as an ulcer control. Group II received 80% ethanol and sulindac (100 mg/kg) orally. […] Animals in Group IV received sulindac (100 mg/kg body weight) without any ethanol. […] Animals of all Groups were sacrificed 1 hour later under anesthesia and their stomachs were quickly removed for further studies. The stomach was opened along the greater curvature, washed with distilled water and cleaned gently by dipping in saline. The mucosal damage was assessed according to the following scoring system: redness=0.5, spot ulcer=1.0, hemorrhagic streaks=1.5, ulcer>3 but<5=2.0, ulcers>5=3.0. The mean score of each treated group minus the mean score of the control group was taken as the severity index of gastric mucosal damage. Results were calculated by ANOVA followed by Dunnett's multiple comparison test and are summarized in Table 7, represent mean±SEM; ***=p<0.001 (n=6).

A short description of data set [2]: DPPH free radical scavenging (antioxidant activity). Conditions: 100 μg/mL compound in 3 mL 0.004% DPPH, 520 nm after 30 min; mean of three replicates ±SD. On the procedure:
The antioxidant activity was measured based on the scavenging activity of the stable DPPH free radical. 100 μg/mL of the twenty-five sulindac derivative compounds were added to 3 mL 0.004% DPPH solution. Methanol was added to 3 mL 0.004% DPPH solution for the control sample. Absorbance was determined at 520 nm after 30 min. Butylated hydroxytoluene (BHT) was used as a reference drug. The percent inhibition was calculated by the equation:
[formula] where At is the absorbance of the compound and A0 is the absorbance of the control.
In general terms: The DPPH test is a chemical assay of radical scavenging.

A short description of data set [3]: LD50 by the Karber method. To be noted: 24 hours observation. The data set is classed as in vivo. As for the experimental part: In a study of the LD50 of sulindac derivative Compound 8, the LD50 (lethal dose 50%) was calculated for compound 8 by the Karber method. For determination of LD50, an observation was made for 24 hours, and symptoms of toxicity and rate of mortality were noted. Expired animals were counted at the end of the study period for the calculation of LD50 according to: LD50=LD100−Σ(a×b)/n, where n is the total number of animals in a group, a is the difference between two successive doses of administered extract/substance, b is the average number of dead animals in two successive doses, and LD100 is the lethal dose causing 100% death of all test animals.

[4] abbreviates: with 80% EtOH, Cmpd 8 150 mg/kg oral, sacrificed 1 hour later.

Marks after values point to notes of the source that are not given here.

For the compound `CC1=C(CC(=O)O)c2cc(F)ccc2/C1=C\c1ccc([S+](C)[O-])cc1` (centres unmarked) [Sulindac], in data set [1], the “Rectal temperature 30 min” value was 37.46 ± 0.14 °C; the “Rectal temperature 60 min” value came to 37.16 ± 0.09 °C; the “Rectal temperature 120 min” value came to 36.23 ± 0.08 °C; the “Rectal temperature, Control” value came to 38.21 ± 0.31 °C. The “Rectal temperature, Normal” value in data set [1] was determined as 35.21 ± 0.11 °C. The “Ulcer Index” value in the data set on ethanol-induced ulcer (drug alone, without ethanol, Compound 8 150 mg/kg oral) is 1.33 ± 0.49. In the data set with ethanol-induced ulcer (setting [4]), the “Ulcer Index” value is listed as 6.83 ± 0.40. For the same compound, in the data set with ethanol-induced ulcer (with 80% EtOH), the “% Inhibition (ulcer index)” value worked out at 6.81%.
For the compound `CC1=C(CC(=O)N/N=C\c2ccc(N(C)C)cc2)c2cc(F)ccc2/C1=C\c1ccc([S+](C)[O-])cc1` (centres unmarked) [Compound 8], the “Scavenging Effect” value in data set [2] stood at 85.10 ± 6.80%. In data set [1], the “Rectal temperature 30 min” value is 38.15 ± 0.10 °C. Further, the “Rectal temperature 60 min” value in data set [1] is 37.83 ± 0.15 °C. The “Rectal temperature 120 min” value in data set [1] came out at 37.33 ± 0.12 °C. In addition, the “Rectal temperature, Control” value in data set [1] was 38.38 ± 0.19 °C. Also, the “Rectal temperature, Normal” value in data set [1] was 35.16 ± 0.10 °C. Moreover, the “Ulcer Index” value in the data set on ethanol-induced ulcer (setting [4]) was 4.33 ± 0.4***. For the same compound, the “% Inhibition (ulcer index)” value with ethanol-induced ulcer (with 80% EtOH) turned out to be 40.90%. The “# Dead” value stood at 0 in data set [3] (dose 100 mg/kg); 0 in data set [3] (dose 200 mg/kg); 1 in data set [3] (dose 400 mg/kg); 3 in data set [3] (dose 800 mg/kg); 5 in data set [3] (dose 1600 mg/kg); 9 in data set [3] (dose 2000 mg/kg). Besides, the LD50 at 24 h in data set [3] (in vivo, Karber method, LD50=LD100−Σ(a×b)/n) was found to be 1310 mg/kg.

One may read the LD50 as the dose expected to kill half of the subjects tested.
